In ChEMBL document CHEMBL5724914, “Linking interpersonal differences in gut microbiota composition and drug biotransformation activity” (2024):

Tests used:
[1] = The drug is tested on Z-013 corresponding to rabbit gut metagenome with ENA study accession number: PRJEB37062 and ENA sample accession number: ERS12561813 for biotransformation under anaerobic condition. The drug concentrations were measured over 9 timepoints collected between 0 and 24 hours of incubation by liquid-chromatography-coupled mass spectrometry (LC–MS); details: 2 µM
[2] = human gut metagenome, 24 h, 2 µM
[3] = The drug is tested on Z-008 corresponding to metagenome with ENA study accession number: PRJEB37062 and ENA sample accession number: ERS12561808 for biotransformation under anaerobic condition. The drug concentrations were measured over 9 timepoints collected between 0 and 24 hours of incubation by liquid-chromatography-coupled mass spectrometry (LC–MS); details: 2 µM
[4] = The drug is tested on WLS-310 corresponding to human gut metagenome with ENA study accession number: PRJEB37062 and ENA sample accession number: ERS12561785 for biotransformation under anaerobic condition. The drug concentrations were measured over 9 timepoints collected between 0 and 24 hours of incubation by liquid-chromatography-coupled mass spectrometry (LC–MS); details: 2 µM
[5] = The drug is tested on WLS-007 corresponding to human gut metagenome with ENA study accession number: PRJEB37062 and ENA sample accession number: ERS12561742 for biotransformation under anaerobic condition. The drug concentrations were measured over 9 timepoints collected between 0 and 24 hours of incubation by liquid-chromatography-coupled mass spectrometry (LC–MS); details: 2 µM
[6] = human gut metagenome, 24 h, 2 µM; remark: listed apart in the source
[7] = human gut metagenome, 24 h, 2 µM; remark: listed apart in the source
[8] = human gut metagenome, 24 h, 2 µM; remark: listed apart in the source
[9] = The drug is tested on WLS-039 corresponding to human gut metagenome with ENA study accession number: PRJEB37062 and ENA sample accession number: ERS12561746 for biotransformation under anaerobic condition. The drug concentrations were measured over 9 timepoints collected between 0 and 24 hours of incubation by liquid-chromatography-coupled mass spectrometry (LC–MS); details: 2 µM
[10] = human gut metagenome, 24 h, 2 µM; remark: listed apart in the source
[11] = human gut metagenome, 24 h, 2 µM; remark: listed apart in the source
[12] = human gut metagenome, 24 h, 2 µM; remark: listed apart in the source
[13] = human gut metagenome, 24 h, 2 µM; remark: listed apart in the source
[14] = The drug is tested on Z-010 corresponding to metagenome with ENA study accession number: PRJEB37062 and ENA sample accession number: ERS12561810 for biotransformation under anaerobic condition. The drug concentrations were measured over 9 timepoints collected between 0 and 24 hours of incubation by liquid-chromatography-coupled mass spectrometry (LC–MS); details: 2 µM
[15] = human gut metagenome, 24 h, 2 µM; remark: listed apart in the source
[16] = human gut metagenome, 24 h, 2 µM; remark: listed apart in the source
[17] = The drug is tested on WLS-090 corresponding to human gut metagenome with ENA study accession number: PRJEB37062 and ENA sample accession number: ERS12561753 for biotransformation under anaerobic condition. The drug concentrations were measured over 9 timepoints collected between 0 and 24 hours of incubation by liquid-chromatography-coupled mass spectrometry (LC–MS); details: 2 µM
[18] = The drug is tested on Z-023 corresponding to metagenome with ENA study accession number: PRJEB37062 and ENA sample accession number: ERS12561822 for biotransformation under anaerobic condition. The drug concentrations were measured over 9 timepoints collected between 0 and 24 hours of incubation by liquid-chromatography-coupled mass spectrometry (LC–MS); details: 2 µM
[19] = human gut metagenome, 24 h, 2 µM; remark: listed apart in the source
[20] = The drug is tested on WLS-038 corresponding to human gut metagenome with ENA study accession number: PRJEB37062 and ENA sample accession number: ERS12561745 for biotransformation under anaerobic condition. The drug concentrations were measured over 9 timepoints collected between 0 and 24 hours of incubation by liquid-chromatography-coupled mass spectrometry (LC–MS); details: 2 µM
Further: call rule not given here.

Row | SMILES | Bacterial Biotransformation [1] | Bacterial Biotransformation [2] | Bacterial Biotransformation [3] | Bacterial Biotransformation [4] | Bacterial Biotransformation [5] | Bacterial Biotransformation [6] | Bacterial Biotransformation [7] | Bacterial Biotransformation [8] | Bacterial Biotransformation [9] | Bacterial Biotransformation [10] | Bacterial Biotransformation [11] | Bacterial Biotransformation [12] | Bacterial Biotransformation [13] | Bacterial Biotransformation [14] | Bacterial Biotransformation [15] | Bacterial Biotransformation [16] | Bacterial Biotransformation [17] | Bacterial Biotransformation [18] | Bacterial Biotransformation [19] | Bacterial Biotransformation [20]
1 | CC(C)c1nc(N(C)S(C)(=O)=O)nc(-c2ccc(F)cc2)c1/C=C/[C@@H](O)C[C@@H](O)CC(=O)[O-].CC(C)c1nc(N(C)S(C)(=O)=O)nc(-c2ccc(F)cc2)c1/C=C/[C@@H](O)C[C@@H](O)CC(=O)[O-].[Ca+2] [ROSUVASTATIN CALCIUM] | Compound NOT metabolized | Compound NOT metabolized | Compound NOT metabolized | Compound metabolized | Compound metabolized | Compound NOT metabolized | Compound NOT metabolized | Compound metabolized | Compound metabolized | Compound NOT metabolized | Compound metabolized | Compound metabolized | Compound metabolized | Compound NOT metabolized | Compound NOT metabolized | Compound metabolized | Compound metabolized | Compound NOT metabolized | Compound NOT metabolized | Compound NOT metabolized
2 | C[C@@H](c1ncncc1F)[C@](O)(Cn1cncn1)c1ccc(F)cc1F [VORICONAZOLE] | Compound NOT metabolized | Compound metabolized | Compound NOT metabolized | Compound metabolized | Compound metabolized | Compound metabolized | Compound metabolized | Compound metabolized | Compound metabolized | Compound metabolized | Compound metabolized | Compound metabolized | Compound metabolized | Compound metabolized | Compound metabolized | Compound metabolized | Compound metabolized | Compound metabolized | Compound metabolized | Compound metabolized
3 | COc1ccc2cc([C@H](C)C(=O)O)ccc2c1 [NAPROXEN] | Compound NOT metabolized | Compound NOT metabolized | Compound NOT metabolized | Compound metabolized | Compound NOT metabolized | Compound metabolized | Compound NOT metabolized | Compound metabolized | Compound metabolized | Compound NOT metabolized | Compound metabolized | Compound metabolized | Compound metabolized | Compound NOT metabolized | Compound NOT metabolized | Compound metabolized | Compound metabolized | Compound NOT metabolized | Compound NOT metabolized | Compound NOT metabolized
4 | C[C@]12CCC(=O)C=C1[C@@H]1C[C@@H]1[C@H]1[C@@H]3[C@@H]4C[C@@H]4[C@@]4(CCC(=O)O4)[C@@]3(C)CC[C@@H]12 [DROSPIRENONE] | Compound metabolized | Compound NOT metabolized | Compound metabolized | Compound metabolized | Compound metabolized | Compound metabolized | Compound NOT metabolized | Compound metabolized | Compound metabolized | Compound metabolized | Compound metabolized | Compound metabolized | Compound metabolized | Compound metabolized | Compound NOT metabolized | Compound metabolized | Compound NOT metabolized | Compound metabolized | Compound NOT metabolized | Compound metabolized
5 | CCN1CCCC1CNC(=O)c1cc(S(=O)(=O)CC)c(N)cc1OC (stereo not given) [AMISULPRIDE] | Compound NOT metabolized | Compound NOT metabolized | Compound NOT metabolized | Compound metabolized | Compound NOT metabolized | Compound NOT metabolized | Compound NOT metabolized | Compound NOT metabolized | Compound NOT metabolized | Compound NOT metabolized | Compound metabolized | Compound NOT metabolized | Compound NOT metabolized | Compound NOT metabolized | Compound NOT metabolized | Compound NOT metabolized | Compound metabolized | Compound NOT metabolized | Compound NOT metabolized | Compound NOT metabolized
